What all share (assay type): functional
The test system of one experiment is Tetranychus cinnabarinus. Description: Insecticidal activity against Tetranychus cinnabarinus (carmine spider mite) […] assessed as larvicidal activity at 0.006 mg/L after 48 hr.
The subject of experiment [1] is Aphis fabae. In words: Insecticidal activity against Aphis fabae (black bean aphid) infested soybean tender shoots at 0.625 mg/L measured 48 hr post compound dose by modified FAO dip method.
Experiment [2] concerns Aphis fabae. In words: Insecticidal activity against Aphis fabae (black bean aphid) infested soybean tender shoots at 10 mg/L measured 48 hr post compound dose by modified FAO dip method.
Experiment [3] deals with Mythimna separata. Description: Insecticidal activity against Mythimna separata (Oriental armyworm) fourth-instar larvae reared compound pre-treated corn leaves assessed as insect mortality at 10 mg/L measured 2 days post compound dose.
Experiment [4] has as its system Mythimna separata. Description: Insecticidal activity against Mythimna separata (Oriental armyworm) fourth-instar larvae reared compound pre-treated corn leaves assessed as insect mortality at 2.5 mg/L measured 2 days post compound dose.
Experiment [5] deals with Aphis fabae. In words: Insecticidal activity against Aphis fabae (black bean aphid) infested soybean tender shoots at 2.5 mg/L measured 48 hr post compound dose by modified FAO dip method.
Experiment [6] deals with Mythimna separata. Description: Insecticidal activity against Mythimna separata (Oriental armyworm) fourth-instar larvae reared compound pre-treated corn leaves assessed as insect mortality at 0.625 mg/L measured 2 days post compound dose.
Experiment [7] has as its system Aphis fabae. In words: Insecticidal activity against Aphis fabae (black bean aphid) infested soybean tender shoots measured 48 hr post compound dose by modified FAO dip method. Further details: concentration or dose not given beside the values.
Experiment [8] deals with Mythimna separata. Description: Insecticidal activity against Mythimna separata (Oriental armyworm) fourth-instar larvae reared compound pre-treated corn leaves assessed as insect mortality at 200 mg/L measured 2 days post compound dose.

The values below come from ChEMBL document CHEMBL3046616, “Design, synthesis, and biological activities of milbemycin analogues” (2011).

For `CCC(C)[C@H]1O[C@]2(CC[C@@H]1C)C[C@@H]1C[C@@H](C/C=C(\C)[C@@H](O[C@H]3C[C@H](OC)[C@@H](OC(=O)Nc4cccc(C)c4)[C@H](C)O3)[C@@H](C)/C=C/C=C3\CO[C@@H]4[C@H](O)C(C)=C[C@@H](C(=O)O1)[C@]34O)O2` (some centres not stated), the mortality at 0.006 µg/mL with Tetranychus cinnabarinus was 49.2%. Besides, the mortality at 0.625 µg/mL is 88.5% with Aphis fabae [1] and 56.3% with Mythimna separata [6]. The mortality at 10 µg/mL in the experiment on Aphis fabae [2] and with Mythimna separata [3] was 100% throughout. The mortality at 2.5 µg/mL was 98.6% in the experiment with Mythimna separata [4] and 100% in the experiment on Aphis fabae [5].

For the compound `CCC(C)[C@H]1O[C@]2(CC[C@@H]1C)C[C@@H]1C[C@@H](C/C=C(\C)[C@@H](O[C@H]3C[C@H](OC)[C@@H](OC(=O)C(C)(C)CC)[C@H](C)O3)[C@@H](C)/C=C/C=C3\CO[C@@H]4[C@H](O)C(C)=C[C@@H](C(=O)O1)[C@]34O)O2` (some centres not stated), the mortality at 0.006 µg/mL with Tetranychus cinnabarinus was 39.6%. Also, the mortality at 0.625 µg/mL was found to be 89.1% in the experiment on Aphis fabae [1] and 0% with Mythimna separata [6]. Further, the mortality at 2.5 µg/mL came out at 83.6% in the experiment on Mythimna separata [4] and 100% in the experiment with Aphis fabae [5].

Take `CCC(C)[C@H]1O[C@]2(CC[C@@H]1C)C[C@@H]1C[C@@H](C/C=C(\C)[C@@H](OC(=O)c3ccccc3OC)[C@@H](C)/C=C/C=C3\CO[C@@H]4[C@H](O)C(C)=C[C@@H](C(=O)O1)[C@]34O)O2` (some centres not stated): the mortality at 0.006 µg/mL in the experiment on Tetranychus cinnabarinus was 19.5%. Also, in the experiment with Mythimna separata [3], the mortality at 10 µg/mL came out at 97%. For the same compound, the mortality at 2.5 µg/mL in the experiment on Mythimna separata [4] was determined as 77.3%. Further, the mortality at 0.625 µg/mL with Mythimna separata [6] amounted to 19.7%. The mortality with Aphis fabae [7] is 68.6%.

Regarding `CCC(C)[C@H]1O[C@]2(CC[C@@H]1C)C[C@@H]1C[C@@H](C/C=C(\C)[C@@H](OC(=O)c3ccc(Cl)cc3)[C@@H](C)/C=C/C=C3\CO[C@@H]4[C@H](O)C(C)=C[C@@H](C(=O)O1)[C@]34O)O2` (some centres not stated), in the experiment with Tetranychus cinnabarinus, the mortality at 0.006 µg/mL was 26.9%. For the same compound, in the experiment with Mythimna separata [3], the mortality at 10 µg/mL is 100%. In addition, in the experiment on Mythimna separata [4], the mortality at 2.5 µg/mL amounted to 24.9%. In addition, the mortality at 0.625 µg/mL in the experiment with Mythimna separata [6] was 0%. The compound further registered a mortality with Aphis fabae [7] of 87.9%.

As for `CCC(C)[C@H]1O[C@]2(CC[C@@H]1C)C[C@@H]1C[C@@H](C/C=C(\C)[C@@H](OC(=O)c3cc(F)c(Cl)nc3Cl)[C@@H](C)/C=C/C=C3\CO[C@@H]4[C@H](O)C(C)=C[C@@H](C(=O)O1)[C@]34O)O2` (some centres not stated), the mortality at 0.006 µg/mL with Tetranychus cinnabarinus amounted to 7.7%. Further, in the experiment on Aphis fabae [1], the mortality at 0.625 µg/mL is 8.3%. Besides, in the experiment on Mythimna separata [8], the mortality at 200 µg/mL is 50.9%. In the experiment on Aphis fabae [2], this compound registered a mortality at 10 µg/mL of 66.9%. The same compound returned a mortality at 2.5 µg/mL in the experiment with Aphis fabae [5] of 38.2%.

For `CCC(C)[C@H]1O[C@]2(CC[C@@H]1C)C[C@@H]1C[C@@H](C/C=C(\C)[C@@H](OC(=O)C3C(C=C(Cl)Cl)C3(C)C)[C@@H](C)/C=C/C=C3\CO[C@@H]4[C@H](O)C(C)=C[C@@H](C(=O)O1)[C@]34O)O2` (some centres not stated), the mortality at 0.006 µg/mL in the experiment with Tetranychus cinnabarinus was 31.7%. Further, the mortality at 10 µg/mL in the experiment on Mythimna separata [3] is 6.7%. Also, the mortality at 2.5 µg/mL with Mythimna separata [4] was found to be 6.4%. In the experiment with Mythimna separata [6], the mortality at 0.625 µg/mL came to 3.3%. In the experiment with Aphis fabae [7], this compound had a mortality of 87.9%.

As to `CCC(C)[C@H]1O[C@]2(CC[C@@H]1C)C[C@@H]1C[C@@H](C/C=C(\C)[C@@H](O[C@H]3C[C@H](OC)[C@@H](OC(=O)c4ccc(F)cc4)[C@H](C)O3)[C@@H](C)/C=C/C=C3\CO[C@@H]4[C@H](O)C(C)=C[C@@H](C(=O)O1)[C@]34O)O2` (some centres not stated), the mortality at 0.006 µg/mL in the experiment with Tetranychus cinnabarinus is 9.9%. The mortality at 0.625 µg/mL with Aphis fabae [1] was 97.1%; in the experiment with Mythimna separata [6] it was 0%. Moreover, the mortality at 10 µg/mL was determined as 100% in the experiment on Aphis fabae [2] and 55.8% with Mythimna separata [3]. Also, the mortality at 2.5 µg/mL with Mythimna separata [4] worked out at 16.7%; in the experiment on Aphis fabae [5], 100%.

Take `CCC(C)[C@H]1O[C@]2(CC[C@@H]1C)C[C@@H]1C[C@@H](C/C=C(\C)[C@@H](OC(=O)Nc3cccc(C)c3)[C@@H](C)/C=C/C=C3\CO[C@@H]4[C@H](O)C(C)=C[C@@H](C(=O)O1)[C@]34O)O2` (some centres not stated): the mortality at 0.006 µg/mL in the experiment with Tetranychus cinnabarinus was found to be 56.6%. The results for the mortality at 0.625 µg/mL with Aphis fabae [1] and in the experiment on Mythimna separata [6] were 86.1% and 43.2%, respectively. Moreover, the values for the mortality at 10 µg/mL with Aphis fabae [2] and with Mythimna separata [3] were 100% and 98.6%, respectively. For the same compound, the mortality at 2.5 µg/mL in the experiment on Mythimna separata [4] turned out to be 76.7%; in the experiment with Aphis fabae [5], 98.9%.

For the compound `CCC(C)[C@H]1O[C@]2(CC[C@@H]1C)C[C@@H]1C[C@@H](C/C=C(\C)[C@@H](O[C@H]3C[C@H](OC)[C@@H](OC(=O)c4ccc(OC)cc4)[C@H](C)O3)[C@@H](C)/C=C/C=C3\CO[C@@H]4/C(=N/OC)C(C)=C[C@@H](C(=O)O1)[C@]34O)O2` (some centres not stated), the mortality at 0.006 µg/mL in the experiment on Tetranychus cinnabarinus worked out at 6.8%. In the experiment with Mythimna separata [8], the mortality at 200 µg/mL came out at 0%. Besides, the mortality in the experiment with Aphis fabae [7] stood at 9.3%.

Turning to `CCC(C)[C@H]1O[C@]2(CC[C@@H]1C)C[C@@H]1C[C@@H](C/C=C(\C)[C@@H](O[C@H]3C[C@H](OC)[C@@H](OC(=O)CC(C)(C)C)[C@H](C)O3)[C@@H](C)/C=C/C=C3\CO[C@@H]4[C@H](O)C(C)=C[C@@H](C(=O)O1)[C@]34O)O2` (some centres not stated), the mortality at 0.006 µg/mL in the experiment on Tetranychus cinnabarinus amounted to 34.2%. The mortality at 0.625 µg/mL with Aphis fabae [1] and with Mythimna separata [6] was 0% throughout. In addition, the results for the mortality at 10 µg/mL with Aphis fabae [2] and with Mythimna separata [3] were 80.2% and 88.6%, respectively. Besides, the mortality at 2.5 µg/mL is 51.2% with Mythimna separata [4] and 30.2% in the experiment on Aphis fabae [5].

Turning to `CCC(C)[C@H]1O[C@]2(CC[C@@H]1C)C[C@@H]1C[C@@H](C/C=C(\C)[C@@H](O[C@H]3C[C@H](OC)[C@@H](OC(=O)c4ccccc4)[C@H](C)O3)[C@@H](C)/C=C/C=C3\CO[C@@H]4[C@H](O)C(C)=C[C@@H](C(=O)O1)[C@]34O)O2` (some centres not stated), the mortality at 0.006 µg/mL with Tetranychus cinnabarinus came to 24.8%. Also, the mortality at 0.625 µg/mL with Aphis fabae [1] came to 86.3%; in the experiment with Mythimna separata [6] it was 38.8%. Further, the mortality at 10 µg/mL in the experiment on Aphis fabae [2] and in the experiment with Mythimna separata [3] was 100% each time. In addition, the mortality at 2.5 µg/mL with Mythimna separata [4] and in the experiment on Aphis fabae [5] was 100% each time.

Regarding `CCC(C)[C@H]1O[C@]2(CC[C@@H]1C)C[C@@H]1C[C@@H](C/C=C(\C)[C@@H](OC(=O)Cc3ccccc3)[C@@H](C)/C=C/C=C3\CO[C@@H]4[C@H](O)C(C)=C[C@@H](C(=O)O1)[C@]34O)O2` (some centres not stated), the mortality at 0.006 µg/mL with Tetranychus cinnabarinus worked out at 44.9%. In addition, the mortality at 200 µg/mL in the experiment with Mythimna separata [8] stood at 89.9%. Also, the mortality in the experiment on Aphis fabae [7] worked out at 62.7%.

Consider `CCC(C)[C@H]1O[C@]2(CC[C@@H]1C)C[C@@H]1C[C@@H](C/C=C(\C)[C@@H](O[C@H]3C[C@H](OC)[C@@H](OC(=O)C4C(C=C(Br)Br)C4(C)C)[C@H](C)O3)[C@@H](C)/C=C/C=C3\CO[C@@H]4[C@H](O)C(C)=C[C@@H](C(=O)O1)[C@]34O)O2` (some centres not stated), for which, in the experiment on Tetranychus cinnabarinus, the mortality at 0.006 µg/mL was determined as 13.4%. For the same compound, the mortality at 200 µg/mL in the experiment with Mythimna separata [8] was 83.3%. For the same compound, the mortality with Aphis fabae [7] came out at 100%.

Regarding `CCC(C)[C@H]1O[C@]2(CC[C@@H]1C)C[C@@H]1C[C@@H](C/C=C(\C)[C@@H](OC(=O)c3ccc(F)cc3)[C@@H](C)/C=C/C=C3\CO[C@@H]4/C(=N/OC)C(C)=C[C@@H](C(=O)O1)[C@]34O)O2` (some centres not stated), the mortality at 0.006 µg/mL with Tetranychus cinnabarinus was 19.8%. Besides, in the experiment on Mythimna separata [8], the mortality at 200 µg/mL amounted to 0%. In the experiment with Aphis fabae [7], this compound gave a mortality of 0%.

On to `CCC(C)[C@H]1O[C@]2(CC[C@@H]1C)C[C@@H]1C[C@@H](C/C=C(\C)[C@@H](O[C@H]3C[C@H](OC)[C@@H](OC(=O)c4ccc(Cl)cc4)[C@H](C)O3)[C@@H](C)/C=C/C=C3\CO[C@@H]4[C@H](O)C(C)=C[C@@H](C(=O)O1)[C@]34O)O2` (some centres not stated), for which the mortality at 0.006 µg/mL with Tetranychus cinnabarinus came to 32.3%. Moreover, the mortality at 10 µg/mL with Mythimna separata [3] is 93.9%. In addition, the mortality at 2.5 µg/mL with Mythimna separata [4] came out at 16.7%. Besides, the mortality at 0.625 µg/mL in the experiment with Mythimna separata [6] was 0%. In the experiment on Aphis fabae [7], this compound showed a mortality of 100%.
